From PMC10174618, “Monoterpenoid aryl hydrocarbon receptor allosteric antagonists protect against ultraviolet skin damage in female mice” (Nature Communications, 2023) come the findings set out here.

Test in all cases: biochemical
Holding throughout (design): KINOMEscan scanMAX active site-directed competition binding assay, percent of control, 468 kinases
Conditions in all cases: competition binding, percent of control

One experiment addresses PKMYT1 (Homo sapiens, UniProt Q99640). In outline:
(§1)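 KINOMEscan active site-directed competition binding assay against 468 human kinases with 100 μM S-carvone. Binding expressed as % of control, with 35% of control as the inhibition threshold.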

For the next experiment, the target named is T1, ZAK (Homo sapiens, UniProt Q9NYL2).
T1 construct: gene MAP3K20
Summed up:
as §1

A further experiment addresses MAPKAPK2 (Homo sapiens, UniProt P49137). In outline:
as §1

In a further experiment the target is SBK1 (Homo sapiens, UniProt Q52WX2). In outline: as §1
The target of the next experiment is CDKL5 (Homo sapiens, UniProt O76039). Summed up: as §1
Another experiment addresses RIPK4 (Homo sapiens, UniProt P57078). In outline:
as §1

Another experiment concerns the target PIP5K1C (Homo sapiens, UniProt O60331). In outline: as §1
The next experiment addresses T2, GCN2(Kin.Dom.2,S808G) (Homo sapiens, UniProt Q9P2K8, S808G).
T2 construct: gene EIF2AK4; Kin.Dom.2
Summed up: as §1

In the next experiment the target is PLK4 (Homo sapiens, UniProt O00444). In outline:
as §1

In the next experiment the target is T3, MST2 (Homo sapiens, UniProt Q13188).
T3 construct: gene STK3
In outline:
as §1

The target in experiment [1] is T4, TYK2(JH1domain-catalytic) (Homo sapiens, UniProt P29597).
T4 construct: JH1domain-catalytic
In outline: as §1

The next experiment concerns the target EPHA1 (Homo sapiens, UniProt P21709). Summed up: as §1
The target of the next experiment is T5, SgK110 (Homo sapiens, UniProt P0C264).
T5 construct: gene SBK3
Summed up: as §1

The next experiment addresses DYRK2 (Homo sapiens, UniProt Q92630). Summed up:
as §1

Another experiment has as its target CSNK1E (Homo sapiens, UniProt P49674). In outline:
as §1

For a further experiment, the target named is ITK (Homo sapiens, UniProt Q08881). Summed up:
as §1

The next experiment has as its target T6, IKK-epsilon (Homo sapiens, UniProt Q14164).
T6 construct: gene IKBKE
Summed up: as §1

For a further experiment, the target named is NLK (Homo sapiens, UniProt Q9UBE8). Summed up: as §1
Chain of NLK (Q9UBE8 whole entry): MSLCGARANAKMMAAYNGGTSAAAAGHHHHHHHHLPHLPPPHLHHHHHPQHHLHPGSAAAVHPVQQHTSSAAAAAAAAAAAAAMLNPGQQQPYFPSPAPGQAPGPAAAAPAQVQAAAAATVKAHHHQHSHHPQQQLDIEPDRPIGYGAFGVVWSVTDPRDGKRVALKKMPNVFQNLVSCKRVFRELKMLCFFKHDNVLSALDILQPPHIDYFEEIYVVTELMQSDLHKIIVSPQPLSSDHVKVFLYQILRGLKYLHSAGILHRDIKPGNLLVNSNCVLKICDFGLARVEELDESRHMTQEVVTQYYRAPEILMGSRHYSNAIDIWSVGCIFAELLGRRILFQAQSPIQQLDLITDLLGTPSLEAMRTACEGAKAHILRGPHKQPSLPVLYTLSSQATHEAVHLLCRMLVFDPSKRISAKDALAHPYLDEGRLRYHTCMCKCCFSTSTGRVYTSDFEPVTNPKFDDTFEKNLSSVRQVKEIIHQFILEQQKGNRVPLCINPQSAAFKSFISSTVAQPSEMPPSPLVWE
A further experiment deals with HUNK (Homo sapiens, UniProt P57058). In outline: as §1
Another experiment has as its target GSK3B (Homo sapiens, UniProt P49841). Summed up:
as §1

The target of experiment [2] is T7, RSK1(Kin.Dom.2-C-terminal) (Homo sapiens, UniProt Q15418).
T7 construct: gene RPS6KA1; Kin.Dom.2-C-terminal
T7 sequence (Q15418 whole entry): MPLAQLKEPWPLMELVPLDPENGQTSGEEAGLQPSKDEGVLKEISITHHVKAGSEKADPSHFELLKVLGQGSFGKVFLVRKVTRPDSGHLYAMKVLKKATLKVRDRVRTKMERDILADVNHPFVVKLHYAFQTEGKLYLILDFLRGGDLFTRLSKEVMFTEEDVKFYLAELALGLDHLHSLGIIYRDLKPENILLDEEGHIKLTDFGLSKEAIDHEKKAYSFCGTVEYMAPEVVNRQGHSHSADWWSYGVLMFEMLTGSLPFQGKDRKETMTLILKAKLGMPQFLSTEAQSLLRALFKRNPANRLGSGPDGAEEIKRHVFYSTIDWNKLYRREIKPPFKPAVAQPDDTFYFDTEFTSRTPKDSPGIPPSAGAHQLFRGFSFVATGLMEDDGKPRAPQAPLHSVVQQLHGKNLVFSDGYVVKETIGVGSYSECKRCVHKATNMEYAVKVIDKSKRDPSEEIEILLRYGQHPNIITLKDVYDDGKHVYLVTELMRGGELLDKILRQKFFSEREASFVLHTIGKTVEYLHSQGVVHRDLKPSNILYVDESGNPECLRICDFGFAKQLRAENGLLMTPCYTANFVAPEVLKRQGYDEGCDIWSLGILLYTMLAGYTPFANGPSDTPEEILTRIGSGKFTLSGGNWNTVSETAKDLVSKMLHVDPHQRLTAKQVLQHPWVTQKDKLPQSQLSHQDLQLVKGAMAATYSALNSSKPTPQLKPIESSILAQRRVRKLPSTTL
In outline: as §1

Chain of RIPK4 (P57078 whole entry): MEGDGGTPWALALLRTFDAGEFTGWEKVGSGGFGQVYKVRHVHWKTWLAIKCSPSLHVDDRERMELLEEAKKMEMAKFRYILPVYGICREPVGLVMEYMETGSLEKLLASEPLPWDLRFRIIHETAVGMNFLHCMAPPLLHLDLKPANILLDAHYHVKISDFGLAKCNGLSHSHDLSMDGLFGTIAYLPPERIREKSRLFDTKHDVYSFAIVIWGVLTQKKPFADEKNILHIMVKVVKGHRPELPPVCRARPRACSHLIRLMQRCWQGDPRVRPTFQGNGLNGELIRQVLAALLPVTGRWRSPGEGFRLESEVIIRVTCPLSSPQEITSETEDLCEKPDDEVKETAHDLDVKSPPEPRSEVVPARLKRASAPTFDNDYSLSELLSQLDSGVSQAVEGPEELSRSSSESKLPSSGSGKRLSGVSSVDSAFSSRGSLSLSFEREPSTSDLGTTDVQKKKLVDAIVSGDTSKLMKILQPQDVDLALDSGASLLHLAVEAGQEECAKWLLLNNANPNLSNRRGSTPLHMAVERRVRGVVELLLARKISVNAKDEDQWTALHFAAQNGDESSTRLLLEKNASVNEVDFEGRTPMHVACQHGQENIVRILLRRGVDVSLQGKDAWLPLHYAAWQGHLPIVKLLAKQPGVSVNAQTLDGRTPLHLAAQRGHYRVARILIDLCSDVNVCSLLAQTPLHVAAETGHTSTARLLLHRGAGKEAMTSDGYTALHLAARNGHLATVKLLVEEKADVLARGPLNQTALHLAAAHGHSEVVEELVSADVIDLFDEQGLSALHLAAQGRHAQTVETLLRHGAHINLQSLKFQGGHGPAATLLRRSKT
Chain of ITK (Q08881 whole entry): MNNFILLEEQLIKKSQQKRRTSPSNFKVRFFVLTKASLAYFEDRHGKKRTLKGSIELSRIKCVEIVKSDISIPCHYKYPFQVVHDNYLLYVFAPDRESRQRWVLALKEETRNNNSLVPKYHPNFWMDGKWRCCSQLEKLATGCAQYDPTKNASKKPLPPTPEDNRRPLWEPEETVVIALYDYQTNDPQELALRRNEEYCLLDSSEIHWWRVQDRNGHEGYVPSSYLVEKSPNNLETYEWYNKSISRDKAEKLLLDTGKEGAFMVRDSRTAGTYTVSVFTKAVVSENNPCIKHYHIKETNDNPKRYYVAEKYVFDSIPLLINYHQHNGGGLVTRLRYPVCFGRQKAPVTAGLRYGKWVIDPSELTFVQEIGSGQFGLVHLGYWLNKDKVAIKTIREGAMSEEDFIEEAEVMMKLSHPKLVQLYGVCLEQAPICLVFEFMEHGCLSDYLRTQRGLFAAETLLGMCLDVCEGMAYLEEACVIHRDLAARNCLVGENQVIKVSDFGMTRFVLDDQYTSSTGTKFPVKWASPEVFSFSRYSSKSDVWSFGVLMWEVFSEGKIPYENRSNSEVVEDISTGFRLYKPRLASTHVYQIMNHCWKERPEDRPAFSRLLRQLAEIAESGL
Chain of GSK3B (P49841 whole entry): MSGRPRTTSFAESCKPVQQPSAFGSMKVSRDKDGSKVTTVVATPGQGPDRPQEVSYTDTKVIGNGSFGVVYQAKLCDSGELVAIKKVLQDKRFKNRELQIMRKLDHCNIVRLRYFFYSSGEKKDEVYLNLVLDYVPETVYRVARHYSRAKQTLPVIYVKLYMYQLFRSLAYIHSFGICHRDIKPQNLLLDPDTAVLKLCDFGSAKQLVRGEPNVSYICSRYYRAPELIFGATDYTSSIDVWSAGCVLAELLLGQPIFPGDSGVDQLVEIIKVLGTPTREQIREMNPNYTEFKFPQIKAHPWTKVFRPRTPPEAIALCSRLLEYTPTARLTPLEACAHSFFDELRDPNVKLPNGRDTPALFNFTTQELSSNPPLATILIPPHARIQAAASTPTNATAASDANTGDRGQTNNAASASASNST
Chain of DYRK2 (Q92630 whole entry): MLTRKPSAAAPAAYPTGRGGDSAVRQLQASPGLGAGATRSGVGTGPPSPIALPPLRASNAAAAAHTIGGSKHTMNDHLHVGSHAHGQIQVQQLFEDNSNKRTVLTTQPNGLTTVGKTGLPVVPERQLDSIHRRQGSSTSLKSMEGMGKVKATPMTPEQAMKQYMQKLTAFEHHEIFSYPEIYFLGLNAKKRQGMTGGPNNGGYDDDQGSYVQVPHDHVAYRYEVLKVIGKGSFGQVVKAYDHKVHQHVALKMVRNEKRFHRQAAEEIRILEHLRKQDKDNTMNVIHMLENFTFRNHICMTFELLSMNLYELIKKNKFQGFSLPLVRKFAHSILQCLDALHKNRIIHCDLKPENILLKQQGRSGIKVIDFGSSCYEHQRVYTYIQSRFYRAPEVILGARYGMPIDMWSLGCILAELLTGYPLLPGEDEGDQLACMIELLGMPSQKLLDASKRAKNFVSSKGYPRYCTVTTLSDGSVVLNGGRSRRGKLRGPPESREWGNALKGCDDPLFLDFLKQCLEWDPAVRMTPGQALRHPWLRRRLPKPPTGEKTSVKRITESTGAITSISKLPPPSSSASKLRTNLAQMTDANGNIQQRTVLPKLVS
T6 sequence (Q14164 whole entry): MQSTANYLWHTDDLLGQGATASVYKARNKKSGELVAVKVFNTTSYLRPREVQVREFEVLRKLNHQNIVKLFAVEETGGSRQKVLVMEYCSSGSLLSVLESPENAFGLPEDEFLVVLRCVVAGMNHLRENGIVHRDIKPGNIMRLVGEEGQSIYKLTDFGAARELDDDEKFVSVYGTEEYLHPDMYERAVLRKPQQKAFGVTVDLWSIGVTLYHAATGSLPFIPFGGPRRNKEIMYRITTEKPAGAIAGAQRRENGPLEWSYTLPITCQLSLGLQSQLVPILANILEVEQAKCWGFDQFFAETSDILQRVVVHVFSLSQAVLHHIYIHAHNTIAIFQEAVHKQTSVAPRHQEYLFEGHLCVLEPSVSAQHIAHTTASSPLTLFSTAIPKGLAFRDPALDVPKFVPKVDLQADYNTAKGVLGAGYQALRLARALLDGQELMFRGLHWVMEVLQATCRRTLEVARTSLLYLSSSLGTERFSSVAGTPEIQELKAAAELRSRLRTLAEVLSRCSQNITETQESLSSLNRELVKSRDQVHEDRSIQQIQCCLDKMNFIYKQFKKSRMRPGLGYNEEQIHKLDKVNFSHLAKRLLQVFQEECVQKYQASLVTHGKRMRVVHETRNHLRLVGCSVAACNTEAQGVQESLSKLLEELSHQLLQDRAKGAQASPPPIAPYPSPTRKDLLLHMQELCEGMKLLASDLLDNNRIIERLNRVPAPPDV
Chain of CSNK1E (P49674 whole entry): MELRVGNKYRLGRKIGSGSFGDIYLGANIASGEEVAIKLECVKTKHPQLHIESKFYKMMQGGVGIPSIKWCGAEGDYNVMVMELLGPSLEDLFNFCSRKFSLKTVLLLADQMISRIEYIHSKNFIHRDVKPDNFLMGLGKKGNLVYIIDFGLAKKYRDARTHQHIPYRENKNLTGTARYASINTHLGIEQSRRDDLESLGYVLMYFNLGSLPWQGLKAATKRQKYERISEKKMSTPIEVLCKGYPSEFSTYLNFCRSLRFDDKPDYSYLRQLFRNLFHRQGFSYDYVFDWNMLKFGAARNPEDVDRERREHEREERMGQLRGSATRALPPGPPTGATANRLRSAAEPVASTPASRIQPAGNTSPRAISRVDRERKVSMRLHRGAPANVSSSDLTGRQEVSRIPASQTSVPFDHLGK

Consider `C=C(C)[C@H]1CC=C(C)C(=O)C1` [S-carvone], for which the remaining binding at 100 µM on PKMYT1 came to 86%; on ZAK it was 72%; on MAPKAPK2, 77%; on SBK1 it was 100%; at CDKL5, 96%; on RIPK4, 64%. Moreover, the remaining binding at 100 µM is 100% on PIP5K1C; 63% at GCN2(Kin.Dom.2,S808G); 76% on PLK4; 65% on MST2; 58% in experiment [1]; 82% at EPHA1. In addition, the remaining binding at 100 µM on SgK110 stood at 93%; on DYRK2, 93%; on CSNK1E, 90%; at ITK, 87%; on IKK-epsilon, 52%; on NLK it was 81%. In addition, the remaining binding at 100 µM on HUNK stood at 63%; at GSK3B, 82%; in experiment [2], 54%.
